Several values for one entry are separate records, joined by “and”; a condition that tells them apart may be missing. Equal values may be shown once.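 Following 48 hours of exposure in 96-well plates, responses at five concentrations were used to interpolate endpoints linearly. At the GI50, growth is halved. TGI: total growth inhibition.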
Test system: MDA-MB-468 breast
Assay: inhibition of tumour cell growth, NCI panel, 48 h

Structure (SMILES)	GI50	TGI
CCOC(=O)c1c(NCC(=O)Nc2cccc([N+](=O)[O-])c2)sc2c1CCCC2	333 nM	1.43 µM
Cc1c(C(N)=O)sc2c1c(=O)n(Cc1ccccc1)c1nnc(-c3ccc(Br)cc3)n21	2040 nM	6.94 µM
COc1cccc(/C(C)=N/NC(=O)CSc2nc3ccccc3c(=O)n2CCc2ccc(S(N)(=O)=O)cc2)c1	3160 nM	8.76 µM
O=S(=O)(Nc1ccc(F)c(Cl)c1)c1ccc(-c2cnc(C3CC3)o2)cc1	98.2 nM	1.63 µM
Cc1ccc(-c2nc([P+](c3ccccc3)(c3ccccc3)c3ccccc3)c(Nc3ccccc3)o2)cc1	232 nM	0.719 µM
Nc1nc(N)c2cc(Sc3cccc(C(F)(F)F)c3)ccc2n1	1020 nM	2.55 µM
CCOC(=O)c1ccc2c(c1)[n+](=O)c(C(C)=O)c(C(F)(F)F)n2[O-]	1590 nM	3.29 µM
ClCc1cccc(CSc2ncnc3c2ncn3Cc2cccc(CCl)c2)c1	1300 nM	2.85 µM
CNS(=O)(=O)OCC1OC(n2cnc3c(N)ncnc32)C(O)C1O (centres undefined)	28900 nM	> 100 µM
COc1cc(/C=C/c2cc(/C=C/c3ccc(O)c(OC)c3)n(C(=O)Nc3ccc(Cl)cc3)n2)ccc1O	310 nM	1.82 µM
C[C@@H]1COCCN1c1cc(C2([S@@](C)(=N)=O)CC2)nc(-c2ccnc3[nH]ccc23)n1	2730 nM	25.6 µM
O=C(C[P+](c1ccccc1)(c1ccccc1)c1ccccc1)C[P+](c1ccccc1)(c1ccccc1)c1ccccc1	165 nM	0.508 µM
Cc1ccc(-c2nc(-c3cn(C)c4ncccc34)cs2)cc1	2660 nM	9.92 µM
COc1cccc(C2C3=C(COC3=O)N(CCO)c3cc4c(cc32)OCO4)c1 (centres undefined)	131 nM	–
Nc1nc(=O)n([C@@H]2CS[C@H](CO)O2)cc1F	> 100000 nM	> 100 µM
C=C1C(=O)O[C@H]2[C@H]1CC/C(COC(=O)NCCc1c[nH]c3ccc(Cl)cc13)=C\CC[C@@]1(C)O[C@@H]21	1650 nM	3.31 µM
Cc1cc(Cl)ccc1Nc1nc(C(F)(F)F)ccc1C(=O)N/N=C/c1ccccc1Cl	1880 nM	> 100 µM
CN1CCN(Cc2ccc3c(NNC(=O)c4ccccc4)nc4cc(F)ccc4n23)CC1	237 nM	1.65 µM
c1ccc([As]=[As]c2ccccc2)cc1 (centres undefined)	541 nM	2.31 µM
CCOC(=O)/C=C/C(=O)[C@H](CC(C)C)NC(=O)[C@H](Cc1ccccc1)NC(=O)OCc1ccccc1	2360 nM	5.07 µM
COc1cc2c(=O)n(CCN(C)C)c3c4cc5c(cc4ccc3c2cc1OC)OCO5	115 nM	0.303 µM
COc1ccccc1NS(=O)(=O)c1ccc2oc(SC(C)C)nc2c1	2380 nM	17.6 µM
Cc1cnc(Nc2ccc(N3CCN(C)CC3)cc2)nc1Nc1ccc(Cl)c(NS(=O)(=O)C(C)(C)C)c1	153 nM	2.2 µM

Structure (SMILES)	GI50	TGI
COc1ccc(Cn2cc3c(c2-c2ccccc2)CCc2cnoc2-3)cc1N	39 nM	0.385 µM
CCCCCCCC(=O)OCC(=O)[C@]1(O)Cc2c(O)c3c(c(O)c2[C@@H](OC2CC(N)C(O)C(C)O2)C1)C(=O)c1c(OC)cccc1C3=O (some centres undefined)	39.8 nM	0.301 µM
COc1ccc(C2C=C(c3ccc(Cl)cc3)N=C3SC=C(C)N32)c(Br)c1 (centres undefined)	1910 nM	6.13 µM
O=C(Nc1cc(Oc2cc(F)c(NC(=O)C3(C(=O)Nc4ccc(F)cc4)CC3)cc2F)ccn1)C1CC1	3170 nM	6.14 µM
CCOC(=O)c1cnn2c3ccccc3n(S(=O)(=O)c3ccc(OC)cc3)c12	324 nM	> 100 µM
NC(=Nc1ccc(N)cc1)C(N)=Nc1ccc(N)cc1	> 100000 nM	> 100 µM
O=C(CC(=O)c1cccc(Cl)c1)c1cccc(Cl)c1	1770 nM	8.76 µM
COc1ccc(/C=C\c2cc(OC)c(OC)c(OC)c2)cc1OCC(=O)Nc1ccc2nc(C)sc2c1	2390 nM	14 µM
NC(=S)N=Nc1c(O)c2ccccc2c2ccccc12	44300 nM	> 100 µM
C#COc1cccc(Nc2ncnc3cc(NC(=O)[C@H](C)Cl)ccc23)c1	11700 nM	61 µM
COc1cc(NCCN=C(N)NC(N)=NC(C)C)c2ncccc2c1	162 nM	0.603 µM
O=C(NCCNc1nccc(-c2c(-c3cccc(O)c3)nc3sccn23)n1)c1ccccc1	3600 nM	28.7 µM
N#CN1CC[C@H](C(=O)Nc2cc3cc(C(N)=O)ccc3cn2)C1	< 14.6 nM	0.0289 µM
CN1CCN(CCOc2cc(OC3CCOCC3)c3c(Nc4c(Cl)ccc5c4OCO5)ncnc3c2)CC1	773 nM and 548 nM	3.49 µM and 7.54 µM
Cc1ccc(NCCN(C)C)c2c(=O)c3ccccc3sc12	1670 nM	3.26 µM
Cn1cc(-c2nn3cc(-c4ccncc4)nc3s2)c2cc(Cl)ccc21	2190 nM	7.84 µM
O=C(Nc1ccccc1O)c1ccc(NS(=O)(=O)c2cccc3cccnc23)cc1	679 nM	3.75 µM
COc1cc(C2C3=C(COC3=O)N(CCO)c3cc4c(cc32)OCO4)cc(OC)c1O (centres undefined)	819 nM	2.62 µM
Cc1cc(Nc2cc(N3CCN(C)CC3)nc(Sc3ccc(NC(=O)C4CC4)cc3)n2)n[nH]1	240 nM	> 10 µM
CCS(=O)(=O)c1ccc(OC)c(Nc2ncc(-c3ccccc3Cl)o2)c1	6530 nM	19.6 µM
O=C(/C=C/C12c3ccccc3C(c3ccccc31)C1C(=O)NC(=O)C12)c1ccc(Cl)cc1 (centres undefined)	1700 nM	3.47 µM
CC(=O)c1cc(C(=O)c2ccc3c(c2)Sc2ccccc2N3)c2c(C)cccn12	175 nM	> 96 µM

— PubChem BioAssay (NCI)
